Experimental data published in US7767659B2, “Synthesis of naturally occurring ecteinascidins and related compounds” (Pharma Mar, S.A., priority 2002, dated 2010).

Legend:
[1] = tested on: K-562; test: Inhibition of cells growth by colorimetric assay (SRB); conditions: Homo sapiens, K562, 48 h; for GI50: read-out: K562 GI50; for CC50: read-out: K562 LC50; for IC (TGI): read-out: K562 TGI
How it was run: (§1)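 Colorimetric SRB read (490 nm) on triplicate wells after 48 h at 37 °C, 5% CO2. Dose range 10 to 10^−8 μg/ml; 5×10^3 cells/well pre-attached 18 h.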

[2] = tested on: LoVo-Dox; test: as above; conditions: Homo sapiens, 48 h; for GI50: read-out: LOVO-DOX GI50; for IC (TGI): read-out: LOVO-DOX TGI
How it was run: as §1

[3] = tested on: HeLa-APL; test: as above; conditions: Homo sapiens, 48 h; for GI50: read-out: HELA-APL GI50; for CC50: read-out: HELA-APL LC50; for IC (TGI): read-out: HELA-APL TGI
How it was run: as §1

[4] = tested on: IGROV-1; test: as above; conditions: Homo sapiens, IGROV-1, 48 h; for GI50: read-out: IGROV GI50; for CC50: read-out: IGROV LC50; for IC (TGI): read-out: IGROV TGI
How it was run: as §1

[5] = tested on: PANC-1; test: as above; conditions: Homo sapiens, PANC-1, 48 h; for GI50: read-out: PANC-1 GI50; for CC50: read-out: PANC-1 LC50; for IC (TGI): read-out: PANC-1 TGI
How it was run: as §1

[6] = tested on: LNCaP; test: as above; conditions: Homo sapiens, LNCaP, 48 h; for GI50: read-out: LNCAP GI50; for CC50: read-out: LNCAP LC50; for IC (TGI): read-out: LNCAP TGI
How it was run: as §1

[7] = tested on: HeLa; test: as above; conditions: Homo sapiens, HeLa, 48 h; for GI50: read-out: HELA GI50; for IC (TGI): read-out: HELA TGI
How it was run: as §1

[8] = tested on: IGROV-ET; test: as above; conditions: Homo sapiens, 48 h; for GI50: read-out: IGROV-ET GI50; for CC50: read-out: IGROV-ET LC50; for IC (TGI): read-out: IGROV-ET TGI
How it was run: as §1

[9] = tested on: SK-MEL-28; test: as above; conditions: Homo sapiens, SK-MEL-28, 48 h; for GI50: read-out: MEL-28 GI50; for CC50: read-out: MEL-28 LC50; for IC (TGI): read-out: MEL-28 TGI
How it was run: as §1

[10] = tested on: DU-145; test: as above; conditions: Homo sapiens, DU-145, 48 h; for GI50: read-out: DU145 GI50; for CC50: read-out: DU145 LC50; for IC (TGI): read-out: DU145 TGI
How it was run: as §1

[11] = tested on: SK-BR-3; test: as above; conditions: Homo sapiens, SK-BR-3, 48 h; for GI50: read-out: SK-BR3 GI50; for CC50: read-out: SK-BR3 LC50; for IC (TGI): read-out: SK-BR3 TGI
How it was run: as §1

[12] = tested on: A-549; test: cells; conditions: Homo sapiens, A549, 48 h; for GI50: read-out: A549 GI50; for CC50: read-out: A549 LC50; for IC (TGI): read-out: A549 TGI
How it was run: as §1

[13] = tested on: LoVo; test: cells; conditions: Homo sapiens, LoVo, 48 h; for GI50: read-out: LOVO GI50; for CC50: read-out: LOVO LC50; for IC (TGI): read-out: LOVO TGI
How it was run: as §1

[14] = tested on: HT-29; test: cells; conditions: Homo sapiens, HT-29, 48 h; for GI50: read-out: HT29 GI50; for CC50: read-out: HT29 LC50; for IC (TGI): read-out: HT29 TGI
How it was run: as §1

COc1cc2c(cc1O)CCN[C@]21CS[C@@H]2c3c(OC(C)=O)c(C)c4c(c3[C@H](COC1=O)N1C2C2c3c(cc(C)c(OC)c3O)C[C@@H]([C@@H]1C#N)N2C)OCO4 (stereo partly shown) [Et-770]
GI50 [1]: 1.65 nM
CC50 [1]: 6630 nM
IC (TGI) [1]: 8.02 nM
GI50 [2]: 74.1 nM
IC (TGI) [2]: 13000 nM
GI50 [3]: 2.96 nM
CC50 [3]: 12.2 nM
IC (TGI) [3]: 6.01 nM
GI50 [4]: 3.32 nM
CC50 [4]: 13000 nM
IC (TGI) [4]: 8.51 nM
GI50 [5]: 5.53 nM
CC50 [5]: 13000 nM
IC (TGI) [5]: 115 nM
GI50 [6]: 1.48 nM
CC50 [6]: 6.34 nM
IC (TGI) [6]: 3.06 nM
GI50 [7]: 5.09 nM
IC (TGI) [7]: 12.6 nM
GI50 [8]: 12.1 nM
CC50 [8]: 13000 nM
IC (TGI) [8]: 4500 nM
GI50 [9]: 2.63 nM
CC50 [9]: 10.8 nM
IC (TGI) [9]: 5.34 nM
GI50 [10]: 4.16 nM
CC50 [10]: 13000 nM
IC (TGI) [10]: 32 nM
GI50 [11]: 0.986 nM
CC50 [11]: 13000 nM
IC (TGI) [11]: 94.8 nM
GI50 [12]: 3.24 nM
CC50 [12]: 5200 nM
IC (TGI) [12]: 6.98 nM
GI50 [13]: 3.09 nM
CC50 [13]: 11.4 nM
IC (TGI) [13]: 5.93 nM
GI50 [14]: 5.86 nM
CC50 [14]: 13000 nM
IC (TGI) [14]: 13 nM

C=CCN1[C@@H]2c3c(cc(C)c(OC)c3O)C[C@H]1[C@H](C#N)N1C2[C@@H]2SC[C@]3(NCCc4cc(OC(=O)OC(C)(C)C)c(OC)cc43)C(=O)OC[C@H]1c1c3c(c(C)c(O)c12)OCO3 (stereo partly shown) [compound 46]
GI50 [1]: 23 nM
CC50 [1]: 4250 nM
IC (TGI) [1]: 64.8 nM
GI50 [2]: 426 nM
CC50 ([2]; read-out: LOVO-DOX LC50): 11700 nM
IC (TGI) [2]: 1350 nM
GI50 [3]: 27.7 nM
CC50 [3]: 97.8 nM
IC (TGI) [3]: 52 nM
GI50 [4]: 29.9 nM
CC50 [4]: 11700 nM
IC (TGI) [4]: 72.4 nM
GI50 [5]: 61.9 nM
CC50 [5]: 11700 nM
IC (TGI) [5]: 398 nM
GI50 [6]: 14.7 nM
CC50 [6]: 59.2 nM
IC (TGI) [6]: 29.6 nM
GI50 [7]: 26.4 nM
CC50 ([7]; read-out: HELA LC50): 97.4 nM
IC (TGI) [7]: 50.1 nM
GI50 [8]: 285 nM
CC50 [8]: 11700 nM
IC (TGI) [8]: 1350 nM
GI50 [9]: 29.6 nM
CC50 [9]: 107 nM
IC (TGI) [9]: 56.4 nM
GI50 [10]: 23.4 nM
CC50 [10]: 105 nM
IC (TGI) [10]: 49.6 nM
GI50 [11]: 18.6 nM
CC50 [11]: 247 nM
IC (TGI) [11]: 53.2 nM
GI50 [12]: 28.9 nM
CC50 [12]: 2770 nM
IC (TGI) [12]: 61.8 nM
GI50 [13]: 55.3 nM
CC50 [13]: 11700 nM
IC (TGI) [13]: 304 nM
GI50 [14]: 42.9 nM
CC50 [14]: 11700 nM
IC (TGI) [14]: 117 nM
